Columns and labels:
[1] = biological target: T1, ALK tyrosine kinase receptor (Homo sapiens, UniProt Q9UM73)
Description: Inhibition of human ALK kinase domain (1058 to 1620 residues) expressed in baculovirus expression system using biotin-poly-GT as substrate pre-incubated for 10 mins followed by ATP addition and measured after 60 mins by HTRF method

[2] = biological target: T1, ALK tyrosine kinase receptor; type: cell-based, HEK293
Description: Inhibition of recombinant human ALK expressed in HEK293 cells assessed as reduction in ALK autophosphorylation at Tyr1604 residue incubated for 60 mins by sandwich ELISA

[3] = biological target: High affinity nerve growth factor receptor (Homo sapiens, UniProt P04629); experiment: Inhibition of N-terminal GST-tagged human TrkA kinase domain (436 to 790 residues) expressed in baculovirus expression system using biotin-poly-GT as substrate pre-incubated for 5 mins followed by ATP addition and measured after 60 mins by alpha screen assay
[4] = biological target: MDR1 (ABCB1, P-gp) (Homo sapiens, UniProt P08183); experiment: Substrate activity at human MDR1 expressed in pig LLC-PK1 cells assessed as efflux ratio of apparent permeability across basolateral to apical over apical to basolateral side at 10 uM after 2 hrs by LC/MS/MS analysis; type: ADME, cell-based
[5] = organism: Homo sapiens; experiment: Selectivity ratio of IC50 for N-terminal GST-tagged human TrkA kinase domain (436 to 790 residues) expressed in baculovirus expression system to IC50 for human ALK kinase domain (1058 to 1620 residues) expressed in baculovirus expression system

Sequence of MDR1 (ABCB1, P-gp) (P08183 whole entry, the tested form may be a part): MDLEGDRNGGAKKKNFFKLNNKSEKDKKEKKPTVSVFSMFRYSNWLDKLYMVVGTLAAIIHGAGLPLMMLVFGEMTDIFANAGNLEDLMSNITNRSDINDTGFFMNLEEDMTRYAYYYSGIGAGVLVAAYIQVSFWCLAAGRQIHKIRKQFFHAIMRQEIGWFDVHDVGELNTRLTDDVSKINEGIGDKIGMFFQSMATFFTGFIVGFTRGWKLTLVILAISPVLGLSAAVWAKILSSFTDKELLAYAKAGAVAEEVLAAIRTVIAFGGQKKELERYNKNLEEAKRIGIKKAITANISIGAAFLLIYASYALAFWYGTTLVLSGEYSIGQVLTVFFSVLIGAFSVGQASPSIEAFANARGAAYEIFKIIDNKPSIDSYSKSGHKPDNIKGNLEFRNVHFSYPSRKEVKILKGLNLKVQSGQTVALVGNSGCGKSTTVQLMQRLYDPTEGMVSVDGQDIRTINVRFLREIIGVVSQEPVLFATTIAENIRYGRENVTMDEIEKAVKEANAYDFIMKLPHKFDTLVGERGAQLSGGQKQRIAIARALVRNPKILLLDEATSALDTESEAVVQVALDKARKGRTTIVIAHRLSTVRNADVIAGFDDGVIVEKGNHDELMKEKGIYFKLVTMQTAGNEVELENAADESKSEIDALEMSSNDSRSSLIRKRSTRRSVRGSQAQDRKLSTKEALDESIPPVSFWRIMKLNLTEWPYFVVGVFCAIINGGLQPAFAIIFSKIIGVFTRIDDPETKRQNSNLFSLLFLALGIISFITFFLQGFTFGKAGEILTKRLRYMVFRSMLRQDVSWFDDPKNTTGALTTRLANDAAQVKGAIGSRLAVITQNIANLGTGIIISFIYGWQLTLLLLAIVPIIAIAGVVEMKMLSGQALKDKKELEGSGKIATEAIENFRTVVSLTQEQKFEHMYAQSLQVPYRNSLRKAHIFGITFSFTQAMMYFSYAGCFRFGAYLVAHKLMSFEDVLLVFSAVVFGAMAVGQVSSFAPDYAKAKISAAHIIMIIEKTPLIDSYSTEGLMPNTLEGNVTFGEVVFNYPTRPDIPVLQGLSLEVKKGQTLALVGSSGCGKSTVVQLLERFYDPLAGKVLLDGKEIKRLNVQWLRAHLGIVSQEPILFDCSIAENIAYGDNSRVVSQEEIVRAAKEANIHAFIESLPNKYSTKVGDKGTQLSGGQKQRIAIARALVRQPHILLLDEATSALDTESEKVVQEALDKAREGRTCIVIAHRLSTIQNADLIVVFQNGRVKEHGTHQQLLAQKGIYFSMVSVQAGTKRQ
T1 sequence (Q9UM73 whole entry): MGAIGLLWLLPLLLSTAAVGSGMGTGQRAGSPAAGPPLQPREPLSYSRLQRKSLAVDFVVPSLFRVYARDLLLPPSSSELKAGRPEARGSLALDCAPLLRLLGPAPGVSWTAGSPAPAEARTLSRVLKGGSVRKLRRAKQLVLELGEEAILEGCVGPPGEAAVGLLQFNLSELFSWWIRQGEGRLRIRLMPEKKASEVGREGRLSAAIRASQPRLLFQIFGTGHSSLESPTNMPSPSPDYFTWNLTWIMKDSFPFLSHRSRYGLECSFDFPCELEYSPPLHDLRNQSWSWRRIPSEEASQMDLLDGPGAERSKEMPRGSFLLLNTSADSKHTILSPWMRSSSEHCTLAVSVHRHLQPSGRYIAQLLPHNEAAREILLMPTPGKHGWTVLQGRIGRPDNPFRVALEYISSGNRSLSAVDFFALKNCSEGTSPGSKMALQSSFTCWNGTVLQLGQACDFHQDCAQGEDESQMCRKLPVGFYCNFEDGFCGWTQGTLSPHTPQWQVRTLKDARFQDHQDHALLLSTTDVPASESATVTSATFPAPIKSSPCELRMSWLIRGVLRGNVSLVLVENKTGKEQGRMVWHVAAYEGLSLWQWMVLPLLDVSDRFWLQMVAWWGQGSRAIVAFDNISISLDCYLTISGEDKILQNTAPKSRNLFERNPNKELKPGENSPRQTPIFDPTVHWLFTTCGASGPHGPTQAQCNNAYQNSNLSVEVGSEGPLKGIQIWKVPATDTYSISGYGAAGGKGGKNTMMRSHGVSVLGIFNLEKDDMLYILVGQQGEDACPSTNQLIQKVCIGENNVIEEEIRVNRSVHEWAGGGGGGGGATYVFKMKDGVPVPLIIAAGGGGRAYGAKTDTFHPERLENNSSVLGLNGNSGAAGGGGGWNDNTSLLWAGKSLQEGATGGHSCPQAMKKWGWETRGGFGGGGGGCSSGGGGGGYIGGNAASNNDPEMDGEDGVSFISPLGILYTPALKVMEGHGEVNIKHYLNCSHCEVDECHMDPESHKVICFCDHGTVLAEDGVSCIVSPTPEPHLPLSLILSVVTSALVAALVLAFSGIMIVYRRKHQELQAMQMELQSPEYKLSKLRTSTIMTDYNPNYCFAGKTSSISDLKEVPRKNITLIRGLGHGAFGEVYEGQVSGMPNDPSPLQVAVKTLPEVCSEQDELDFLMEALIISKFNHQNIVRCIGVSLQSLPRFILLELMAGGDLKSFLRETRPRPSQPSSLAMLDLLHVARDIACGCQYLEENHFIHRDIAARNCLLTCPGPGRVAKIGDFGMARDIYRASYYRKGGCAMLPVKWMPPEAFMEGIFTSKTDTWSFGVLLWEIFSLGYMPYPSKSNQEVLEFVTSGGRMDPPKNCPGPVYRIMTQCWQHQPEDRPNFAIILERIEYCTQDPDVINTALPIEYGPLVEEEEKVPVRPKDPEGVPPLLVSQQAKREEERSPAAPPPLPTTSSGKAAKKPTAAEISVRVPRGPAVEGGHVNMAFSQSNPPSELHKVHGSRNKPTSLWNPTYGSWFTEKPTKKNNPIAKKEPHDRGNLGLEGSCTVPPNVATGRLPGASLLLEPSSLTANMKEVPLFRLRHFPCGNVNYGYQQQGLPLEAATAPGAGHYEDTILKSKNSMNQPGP
Sequence of High affinity nerve growth factor receptor (P04629 whole entry, the tested form may be a part): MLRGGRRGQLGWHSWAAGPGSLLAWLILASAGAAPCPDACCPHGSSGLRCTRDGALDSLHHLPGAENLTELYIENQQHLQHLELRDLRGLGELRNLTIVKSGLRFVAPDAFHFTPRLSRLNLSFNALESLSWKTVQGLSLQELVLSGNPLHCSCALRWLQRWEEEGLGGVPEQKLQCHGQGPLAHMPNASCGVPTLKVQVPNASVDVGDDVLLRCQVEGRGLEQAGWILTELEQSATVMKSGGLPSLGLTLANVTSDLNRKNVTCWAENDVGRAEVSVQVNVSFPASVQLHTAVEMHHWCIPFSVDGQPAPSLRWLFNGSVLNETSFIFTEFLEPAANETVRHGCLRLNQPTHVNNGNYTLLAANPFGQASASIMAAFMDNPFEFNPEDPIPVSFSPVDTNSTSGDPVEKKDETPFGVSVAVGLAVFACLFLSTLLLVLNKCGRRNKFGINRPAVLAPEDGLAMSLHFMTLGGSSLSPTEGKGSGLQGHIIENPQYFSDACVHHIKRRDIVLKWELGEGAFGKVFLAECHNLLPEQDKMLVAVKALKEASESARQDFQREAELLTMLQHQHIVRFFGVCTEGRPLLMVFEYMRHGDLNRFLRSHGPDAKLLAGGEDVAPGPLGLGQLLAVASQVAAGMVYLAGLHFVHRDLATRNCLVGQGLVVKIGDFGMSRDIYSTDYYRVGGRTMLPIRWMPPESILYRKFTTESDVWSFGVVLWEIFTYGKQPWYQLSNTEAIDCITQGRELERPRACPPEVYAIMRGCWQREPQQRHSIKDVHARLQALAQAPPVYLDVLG

| Structure (SMILES) | IC50 [1] [nM] | IC50 [2] [nM] | IC50 [3] [nM] | efflux ratio at 2 h, 10 µM [4] | Ratio IC50 [5] |
| --- | --- | --- | --- | --- | --- |
| CCS(=O)(=O)c1cn(-c2cc(C)[nH]n2)c2nc(N[C@@H](C)c3ccc(F)cn3)ccc12 | 9.6 | 37 | 110 |  |  |
| COCc1cn(-c2cc(C)n[nH]2)c2nc(OC(C)c3ccc(F)cn3)ccc12 (racemic; 16) | 2800 |  | 1500 |  |  |
| Cc1cc(-n2cc(S(=O)(=O)C3COC3)c3ccc(N[C@@H](C)c4ccc(F)cn4)nc32)n[nH]1 | 20 | 60 | 730 |  |  |
| Cc1cc(-n2ccc3ccc(N[C@@H](C)c4ccc(F)cc4F)nc32)[nH]n1 | 14 | 140 | < 10 |  |  |
| Cc1cc(-n2cc(C(=O)N3CCOCC3)c3ccc(N[C@@H](C)c4ccc(F)cn4)nc32)[nH]n1 | 2.5 | 23 | 1200 | 18 | 480 |
| Cc1cc(-n2cc(C(=O)N3CCN(C)CC3)c3ccc(N[C@@H](C)c4ccc(F)cn4)nc32)[nH]n1 | 6.1 | 37 | 250 |  |  |
| Cc1cc(-n2cc(C(=O)N3CCO[C@H](C)C3)c3ccc(O[C@H](C)c4ccc(F)cn4)nc32)[nH]n1 (relative stereo) | 4.6 | 42 | 3400 | 1.3 |  |
| Cc1cc(-n2cc(S(C)(=O)=O)c3ccc(N[C@@H](C)c4ccc(F)cn4)nc32)n[nH]1 | 3.3 | 13 | 45 |  |  |
| COCc1cn(-c2cc(C)n[nH]2)c2nc(OC(C)c3ccc(F)cn3)ccc12 (racemic; 15) | 3.2 |  | < 10 |  |  |
| Cc1cc(-n2cc(S(C)(=O)=O)c3ccc(N[C@@H](C)c4ccc(F)cc4F)nc32)n[nH]1 | 1.2 | 27 | 15 |  |  |
| Cc1cc(-c2cnc3ccc(N[C@@H](C)c4ccc(F)cc4F)nn23)[nH]n1 | 2 | 6 | 0.1 |  |  |
| Cc1cc(-n2cc(S(=O)(=O)C(C)C)c3ccc(N[C@@H](C)c4ccc(F)cn4)nc32)n[nH]1 | 18 | 270 | 1700 |  | 94 |
| Cc1cc(-n2cc(C(=O)N(C)C)c3ccc(N[C@@H](C)c4ccc(F)cn4)nc32)[nH]n1 | 1.8 | 16 | 120 |  | 67 |
| Cc1cc(-c2cnc3ccc(N[C@H](C)c4ccc(F)cc4F)nn23)[nH]n1 | 1000 |  |  |  |  |
| Cc1cc(-n2cc(C(=O)N3CCOCC3)c3ccc(OC(C)c4ccc(F)cn4)nc32)[nH]n1 (racemic) | 6.2 | 69 | 1400 | 3.1 |  |
| Cc1cc(-n2cc(C3=CCOCC3)c3ccc(N[C@@H](C)c4ccc(F)cn4)nc32)[nH]n1 | 1.9 | 9.4 | 2.7 |  |  |

Source: ChEMBL document CHEMBL4396868, “Discovery of Potent, Selective, and Brain-Penetrant 1 H-Pyrazol-5-yl-1 H-pyrrolo[2,3- b]pyridines as Anaplastic Lymphoma Kinase (ALK) Inhibitors” (J Med Chem, 2019)
